{
  "source": "patent US20150336981A1",
  "about": "“MODIFIED POLYPHENOLS AND MODIFIED POLYPHENOL COMPOSITIONS” (CELLAROUGE PTY LTD, priority 2012, published 2015)",
  "origin": "cited, not measured here",
  "system": "high-carbohydrate, high fat diet-fed rats",
  "conditions": "HEA: high-carbohydrate, high fat diet + ellagic acid 0.8 g/kg food",
  "data": [
    {"compound": "O=c1oc2c(O)c(O)cc3c(=O)oc4c(O)c(O)cc1c4c23", "note": "[ellagic acid]", "values": [
      {"measurement": "AUC", "result": "696 ± 11", "unit": "mmol·min/L"},
      {"measurement": "Abdominal circumference", "result": "21.3 ± 0.3", "unit": "cm"},
      {"measurement": "Abdominal fat pads", "result": "520 ± 29", "unit": "mg/mm tibial length"},
      {"measurement": "BMI", "result": "0.72 ± 0.02", "unit": "g/cm^2"},
      {"measurement": "Basal blood glucose", "result": "3.9 ± 0.2", "unit": "mmol/L"},
      {"measurement": "Feed efficiency", "result": "0.31 ± 0.02", "unit": "g/kJ"},
      {"measurement": "Final body weight", "result": "473 ± 2", "unit": "g"},
      {"measurement": "Food intake", "result": "21.0 ± 0.4", "unit": "g"},
      {"measurement": "Plasma C-reactive protein", "result": "2.40 ± 0.07", "unit": "µmol/L"},
      {"measurement": "Plasma non-esterified fatty acids", "result": "1.7 ± 0.2", "unit": "mmol/L"},
      {"measurement": "Plasma total cholesterol", "result": "1.5 ± 0.1", "unit": "mmol/L"},
      {"measurement": "Plasma triglycerides", "result": "0.5 ± 0.1", "unit": "mmol/L"},
      {"measurement": "Plasma urea", "result": "6.2 ± 0.4", "unit": "mmol/L"},
      {"measurement": "Plasma uric acid", "result": "44.3 ± 3.8", "unit": "µmol/L"},
      {"measurement": "Water intake", "result": "19.0 ± 0.4", "unit": "mL"}
    ]}
  ]
}
